From ChEMBL document CHEMBL5291721, “A preclinical secondary pharmacology resource illuminates target-adverse drug reaction associations of marketed drugs” (Nat Commun, 2023)

Key:
Estrogen receptor [1] = target: T1, Estrogen receptor (Homo sapiens, UniProt P03372); format: functional
T1 sequence (P03372 whole entry): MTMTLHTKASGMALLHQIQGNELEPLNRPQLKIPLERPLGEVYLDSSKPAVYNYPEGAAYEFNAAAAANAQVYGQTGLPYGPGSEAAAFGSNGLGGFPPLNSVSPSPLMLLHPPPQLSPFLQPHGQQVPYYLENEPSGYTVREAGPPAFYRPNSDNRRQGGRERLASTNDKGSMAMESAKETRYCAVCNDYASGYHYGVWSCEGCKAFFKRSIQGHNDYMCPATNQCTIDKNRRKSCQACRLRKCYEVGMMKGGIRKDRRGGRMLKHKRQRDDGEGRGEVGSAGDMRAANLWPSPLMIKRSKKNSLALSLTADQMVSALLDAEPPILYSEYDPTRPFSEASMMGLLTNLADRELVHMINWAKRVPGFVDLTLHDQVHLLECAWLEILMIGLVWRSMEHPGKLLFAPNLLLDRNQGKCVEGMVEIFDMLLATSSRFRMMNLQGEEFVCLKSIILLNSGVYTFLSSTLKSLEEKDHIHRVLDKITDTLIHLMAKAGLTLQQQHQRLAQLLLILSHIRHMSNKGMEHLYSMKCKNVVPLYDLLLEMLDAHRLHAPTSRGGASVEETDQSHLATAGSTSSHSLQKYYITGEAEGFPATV

Thromboxane A2 receptor = target: T2, Thromboxane A2 receptor (Homo sapiens, UniProt P21731); format: functional, cell-based
T2 sequence (P21731 whole entry): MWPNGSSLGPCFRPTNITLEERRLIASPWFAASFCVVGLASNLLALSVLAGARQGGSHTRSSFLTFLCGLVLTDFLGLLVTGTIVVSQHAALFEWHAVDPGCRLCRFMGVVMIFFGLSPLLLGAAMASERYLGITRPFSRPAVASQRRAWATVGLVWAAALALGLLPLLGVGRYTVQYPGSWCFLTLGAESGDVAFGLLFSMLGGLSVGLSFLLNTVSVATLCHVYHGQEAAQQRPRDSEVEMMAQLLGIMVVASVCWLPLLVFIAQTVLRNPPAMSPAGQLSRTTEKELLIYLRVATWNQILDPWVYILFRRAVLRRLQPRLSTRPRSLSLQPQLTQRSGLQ

Estrogen receptor [2] = target: T1, Estrogen receptor; format: functional; remark: listed apart in the source

Measured: AC50
Note: assay procedure not described here.

CC(C)c1cccc(C(C)C)c1O [PROPOFOL]
> 30 µM: Estrogen receptor [1] | Thromboxane A2 receptor | Estrogen receptor [2]
